Common to all, as to assay type: cell-based, Candida albicans
The test system of experiment [1] is planktonic C. albicans cells. In words: CFU assay of planktonic cells after AmB treatment. The note with it: exponential phase planktonic cells. As to the method:
CFU assay. CFU were estimated for both AmB treated and untreated planktonic sample. 100 μl planktonic C. albicans cells in PBS were serially diluted in 2 ml cuvettes (catalog no. BTCUV, Biotrace Inc.). The serial dilution was 10-fold across each cuvette. The required number of serial dilutions per sample were judged based on trial and error. A volume of 100 μl from each serially diluted cuvette was spread as a separate lane on an agar plate. […] Plates were incubated at 37° C. for 24 hours. CFU were estimated from dilutions whose numbers fell in the range of 10 to 100 colonies per lane. The appropriate dilution factor was multiplied to estimate the final viable cell concentration for every sample.
AmB treatment. AmB was from Biosource International Inc. (Fungizone with 0.00205% sodium deoxycholate solubilizing agent). A standard broth dilution method was used to assess the AmB MlC of CA-1, with ATCC 24433 used as a reference strain (32). AmB treatment of planktonic cells and shear-removed biofilm was preformed in 1.5-ml centrifuge tubes. The tubes contained a total working volume of 450 μl. […] This enabled recording of absorbance data for the metabolic indicator in real time without perturbing the well contents. […]
(ii) Calculation of percent viability. Viability in terms of CFU was calculated by using the kinetic parameters estimated for each sample and the corresponding calibrations. […]

Experiment [2] concerns C. albicans biofilm basal blastospores. In words: KMA for in situ biofilm susceptibility testing (alamarBlue, modified medium, t-threshold). As for the experimental part:
Biofilm cultures. Biofilms were grown in a tubular flow cell (TF). Silicone tubing (Cole-Panmer; catalog no. EW-95802-08) with an inner diameter of 4.78 mm, an outer diameter of 6.35 mm, a wall of 0.79 mm, and a length of 60 cm constituted the biofilm-growing region of the TF. The source of growth medium for the TF was a 2-liter Erlenineyer flask. A bubble trap was placed between the Erlenmeyer flask and the TF to prevent passage of air bubbles during biofilm growth. Flow rates of 1.17 ml/min (shear rate, 109.5 s^−1) were maintained by a peristaltic pump coupled at the effluent end of the TF. The residence time for the volume of liquid contained in the tubular reactor portion of the flow system (20-cm length of tubing) was 3 min. This condition ensured that the contribution to the cell population in the TF from cells in the planktonic mode of growth (doubling time, approximately 80 min) was negligible. After sterilization by autoclaving, the entire setup was placed horizontally on a grilled shelf in an incubator at 37° C. The TF was filled with growth medium before being inoculated with cells. The inoculum was prepared from a 24-h planktonic culture at a concentration of 10^8 cells/ml in 0.1 M phosphate-buffered saline (PBS, pH 7) buffer. It was fed into the TF from the effluent end by reversing the direction of flow. Flow was then discontinued for 1 h. After the 1 -h inoculation period, flow was resumed for 36 h. At the end of this culture period, the section of tubing in which the biofilm grew was clamped at both ends and removed by cutting the tubing with a sterile blade. The liquid column was drained into a petri dish by moving the tubing to a vertical position and releasing the clamps. The tubing was then rinsed with PBS buffer equivalent to one tube volume. The fraction of biofilm collected in the petri dish by this procedure is referred to as the shear-removed biofilm. […]
AmB treatment. […] This enabled recording of absorbance data for the metabolic indicator in real time without perturbing the well contents. […]
In general terms: The colour change of resazurin is a common sign of viable cells or microbes.

The subject of experiment [3] is planktonic C. albicans cells. In words: kinetic metabolic assay (KMA, alamarBlue) of planktonic cells after 1 h AmB treatment. As to the method:
Planktonic cultures. Cultures were grown aerobically in 250-ml Erlenmeyer flasks containing 100 ml growth medium. The flasks were placed in a shaker incubator at 37° C. and 160 rpm for the desired period of growth. C. albicans grew as budding yeast under these conditions. Exponential phase cells were harvested after a 5-h growth period and stationary-phase cells at 96 h.
AmB treatment. AmB was from Biosource International Inc. (Fungizone with 0.00205% sodium deoxycholate solubilizing agent). A standard broth dilution method was used to assess the AmB MlC of CA-1, with ATCC 24433 used as a reference strain (32). AmB treatment of planktonic cells and shear-removed biofilm was preformed in 1.5-ml centrifuge tubes. The tubes contained a total working volume of 450 μl. AmB dissolved in 200 μl of 0.1 M PBS (pH 7.0), and cells resuspended in 250 μl of PBS adjusted to an optical density of 0.05 (A660) were added to the 1.5-ml tube. After more than 10 preliminary experiments, the time between recovery of the shear-removed biofilm in the petri dish and exposure to AmB was reduced to approximately 5 min. The positive controls had no AmB, and the negative controls had no cells. For AmB treatment of the basal blastospore population, each sample consisted of a 0.5-cm long section of tubing cut from the TF. Each tubing sample was positioned in the 96-well plate (Corning Inc.; Costar 3370) such that its outer wall snugly fit along the wall of the well in the 96-well plate. This enabled recording of absorbance data for the metabolic indicator in real time without perturbing the well contents. The 0.5-cm tubing samples were randomly placed in the 96-well plate in order to randomize the distribution between treated samples and untreated controls. Solution (225 μl) containing AmB in 0.1 M PBS was added to wells to completely submerge the 0.5-cm tubing during the AmB treatment phase. Untreated samples were the positive controls. Three independent TF experiments were run, generating 24 samples per AmB concentration and 61 untreated controls for the basal blastospores. Sterile tubing was used as a negative control. In every experiment, a minimum of four negative controls were used. The AmB treatment period was 1 h across all cell populations. During AmB exposure, the 1.5-m1 tubes (containing either the planktonic or shear-removed populations) and 96 -well plates (containing the basal blastospores) were placed in a shaker incubator at 37° C. and 150 rpm. […]
Kinetic curves. Kinetic data of the reduction of metabolic indicators and turbidimetric changes were recorded for both AmB treated and untreated samples. […] The kinetic assay in the 96 well format was run for 24 h at 37° C. with continuous shaking in a Synergy-HT plate reader (Biotek Inc.). […]

For the molecule `C[C@@H]1[C@H](O)[C@@H](C)/C=C/C=C/C=C/C=C/C=C/C=C/C=C/[C@H](O[C@@H]2O[C@H](C)[C@@H](O)[C@H](N)[C@@H]2O)C[C@@H]2O[C@](O)(C[C@@H](O)C[C@@H](O)[C@H](O)CC[C@@H](O)C[C@@H](O)CC(=O)O[C@H]1C)C[C@H](O)[C@H]2C(=O)O` [AmB, amphotericin B], in experiment [1], the “AmB concentration beyond which complete killing was observed” value was above 1.77 µg/mL. In addition, the “activity of basal blastospores relative to other populations” value in experiment [2] (AmB concentrations greater than or equal to 3.7 μg/ml, versus shear removed biofilm, stationary and exponential phase planktonic cells) is recorded as “clearly more active than the other three populations”. For the same molecule, the “AmB concentration up to which metabolic activity was exhibited” value in experiment [2] (basal blastospore subpopulation in situ, highest tested concentration, 1 h AmB treatment) turned out to be 28.26 µg/mL. For the same molecule, the “loss of metabolic activity of basal blastospores relative to other samples” value in experiment [2] (lower AmB concentrations (<1.77 μg/ml)) is on record as “greater loss of metabolic activity than the other samples”. Also, the “AmB concentration beyond which complete killing is achieved” value in experiment [3] (exponential phase planktonic cells, KMA, 1 h AmB treatment) was above 1.77 µg/mL. Further, the “AmB concentration up to which viability is detected” value in experiment [3] (modified medium, exponential-phase cells, alamarBlue, t-threshold (FIG. 5)) worked out at 1.77 µg/mL. Besides, the “AmB concentration up to which cells survive” value in experiment [3] (stationary phase planktonic cells, alamarBlue, t-threshold, 1 h AmB treatment (FIG. 6)) stood at 3.55 µg/mL. Further, the “AmB concentration up to which viability is detected (detection limit)” value in experiment [3] (unmodified medium, exponential-phase cells, alamarBlue, t-threshold (FIG. 5)) came out at 0.88 µg/mL.

These data come from patent publication US20070238146A1, “Kinetic metabolic assay for antifungal susceptibility testing” (priority 2006, published 2007).
